# Columns and labels:
# [1] = Inhibition of rat microsomal SOAT assessed as reduction in cholesteryl oleate formation from oleoyl co-enzyme A pretreated for 15 mins followed by oleoyl co-enzyme A addition after 10 mins by HPTLC method
# [2] = organism: Rattus norvegicus; experiment: Inhibition of rat microsomal SOAT assessed as reduction in cholesteryl oleate formation from oleoyl co-enzyme A at 10 uM pretreated for 15 mins followed by oleoyl co-enzyme A addition measured after 10 mins by HPTLC method relative to control
# [3] = tested on: Rattus norvegicus; experiment: Anti-hypercholesterolemic activity in poloxamer-407-induced Wistar rat lipoprotein lipase inhibition model assessed as fold change in triglyceride level at 20 mg/kg administered as single dose via oral gavage pretreated for 4 hrs followed by poloxamer-407 induction measured over 24 hrs (reference value: 80); type: functional
# [4] = molecular target: T1, Sterol O-acyltransferase 2 (Homo sapiens, UniProt O75908); experiment: Inhibition of human SOAT2
# T1 sequence (O75908 whole entry): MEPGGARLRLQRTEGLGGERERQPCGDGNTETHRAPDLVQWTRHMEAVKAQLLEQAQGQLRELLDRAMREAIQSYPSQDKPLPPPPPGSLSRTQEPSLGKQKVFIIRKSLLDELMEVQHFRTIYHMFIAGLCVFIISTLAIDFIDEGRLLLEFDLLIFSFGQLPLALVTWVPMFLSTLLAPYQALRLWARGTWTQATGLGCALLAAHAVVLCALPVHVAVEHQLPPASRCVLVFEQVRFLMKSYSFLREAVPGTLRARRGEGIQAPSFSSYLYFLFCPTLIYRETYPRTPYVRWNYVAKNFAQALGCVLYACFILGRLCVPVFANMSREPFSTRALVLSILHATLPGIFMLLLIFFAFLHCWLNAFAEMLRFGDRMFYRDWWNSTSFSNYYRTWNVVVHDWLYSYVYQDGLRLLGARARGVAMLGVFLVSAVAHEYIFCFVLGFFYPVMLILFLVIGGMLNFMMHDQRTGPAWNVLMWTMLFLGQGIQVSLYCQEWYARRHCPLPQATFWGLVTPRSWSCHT
Structure (SMILES),IC50 [1] [µM],pIC50 [1],inhibition [2] [%],fold change (FC) [3],IC50 [4] [µM]
CCCCCCCNC(=O)Nc1ccc(-c2sc(C)nc2-c2ccc(Cl)cc2)cc1,7.85,5.105,52.2,50 - 90,–
CCc1cccc(CC)c1NC(=O)Nc1ccc(-c2sc(C)nc2-c2ccc(F)cc2)cc1,8.4,5.075,46.7,50 - 90,–
CCCCCCCNC(=O)Nc1ccc(-c2sc(C)nc2-c2ccc(F)cc2)cc1,5.69,5.244,63,50 - 90,–
CCCCNC(=O)Nc1ccc(-c2sc(C)nc2-c2ccc(Cl)cc2)cc1,6.27,5.202,60.7,50 - 90,–
O=C(NCCCCCCSc1nc(-c2ccccc2)c(-c2ccccc2)[nH]1)Nc1ccc(F)cc1F,–,–,–,–,1.74
CC(C)c1cc(C(C)C)c(CC(=O)NS(=O)(=O)Oc2c(C(C)C)cccc2C(C)C)c(C(C)C)c1 [AVASIMIBE],–,–,–,20,–
Cc1nc(-c2ccc(F)cc2)c(-c2ccc(NC(=O)Nc3c(C(C)C)cccc3C(C)C)cc2)s1,11.8,4.926,42.1,–,–
CCc1cccc(CC)c1NC(=O)Nc1ccc(-c2sc(C)nc2-c2ccc(Cl)cc2)cc1,4.04,5.3936,63.3,50 - 90,–
CCCCCCCCCCCCNC(=O)Nc1ccc(-c2sc(C)nc2-c2ccc(C)cc2)cc1,12.2,4.914,46.2,–,–
Cc1nc(-c2ccc(F)cc2)c(-c2ccc(NC(=O)Nc3ccc(F)cc3F)cc2)s1,196,3.7081,4.97,–,–
CCCCCCCCCCCCNC(=O)Nc1ccc(-c2nonc2-c2ccc(F)cc2)cc1,12.4,4.905,50.1,–,–
CCCCCCCNC(=O)Nc1nc(-c2ccc(OC)cc2)c(-c2ccc(Cl)cc2)s1,21.3,4.672,1.73,–,–
CCCCNC(=O)Nc1ccc(-c2nonc2-c2ccc(F)cc2)cc1,12.3,4.908,54.5,–,–
CCCCNC(=O)Nc1nc(-c2ccc(C)cc2)c(-c2ccc(Cl)cc2)s1,94,4.0271,36.4,–,–
Cc1ccc(-c2nonc2-c2ccc(NC(=O)Nc3ccc(F)cc3F)cc2)cc1,20.1,4.697,13.5,–,–

# Reference: ChEMBL document CHEMBL4049391, “Vicinal diaryl azole-based urea derivatives as potential cholesterol lowering agents acting through inhibition of SOAT enzymes” (Eur J Med Chem, 2017)
